Patent US7671061B2, “Methods and compositions for treating pain” (Hydra Biosciences, Inc., priority 2005, dated 2010)
Entries after “also recorded” stand apart in the source; their conditions may differ.

Assays:
hNaV1.2 = hNaV1.2 (Homo sapiens, UniProt Q99250); assay: hNaV1.2 patch clamp (Qpatch) selectivity; assay type: cell-based; details: Table 2
hTRPV3 = biological target: T1, hTRPV3 (Homo sapiens, UniProt Q8NET8); assay: hTRPV3 patch clamp selectivity; assay type: cell-based; details: Table 2
T1 sequence (Q8NET8 1-790): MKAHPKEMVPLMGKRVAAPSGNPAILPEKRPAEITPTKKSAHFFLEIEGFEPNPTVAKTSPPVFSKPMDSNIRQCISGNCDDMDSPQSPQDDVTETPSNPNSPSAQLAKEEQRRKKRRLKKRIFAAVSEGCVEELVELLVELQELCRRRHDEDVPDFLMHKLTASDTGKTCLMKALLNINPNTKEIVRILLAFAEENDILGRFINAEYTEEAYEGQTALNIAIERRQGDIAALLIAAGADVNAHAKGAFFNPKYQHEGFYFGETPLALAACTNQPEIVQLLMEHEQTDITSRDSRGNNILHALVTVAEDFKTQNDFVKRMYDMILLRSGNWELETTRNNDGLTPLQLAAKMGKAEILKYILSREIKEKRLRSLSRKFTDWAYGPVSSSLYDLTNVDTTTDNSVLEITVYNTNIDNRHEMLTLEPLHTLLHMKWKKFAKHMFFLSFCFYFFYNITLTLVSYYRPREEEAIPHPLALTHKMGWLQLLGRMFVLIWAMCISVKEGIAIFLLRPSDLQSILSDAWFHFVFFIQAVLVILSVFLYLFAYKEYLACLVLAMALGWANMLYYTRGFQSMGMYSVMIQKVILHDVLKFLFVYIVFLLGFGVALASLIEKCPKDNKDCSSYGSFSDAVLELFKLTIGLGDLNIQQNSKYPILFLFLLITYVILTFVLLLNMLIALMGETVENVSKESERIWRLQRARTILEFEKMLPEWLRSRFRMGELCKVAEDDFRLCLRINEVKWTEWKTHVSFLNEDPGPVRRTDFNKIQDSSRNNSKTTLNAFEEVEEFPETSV

hTRPV4 = hTRPV4 (Homo sapiens, UniProt Q9HBA0); assay: hTRPV4 patch clamp selectivity; assay type: cell-based; details: Table 2
hTRPV4, sequence (Q9HBA0 whole entry): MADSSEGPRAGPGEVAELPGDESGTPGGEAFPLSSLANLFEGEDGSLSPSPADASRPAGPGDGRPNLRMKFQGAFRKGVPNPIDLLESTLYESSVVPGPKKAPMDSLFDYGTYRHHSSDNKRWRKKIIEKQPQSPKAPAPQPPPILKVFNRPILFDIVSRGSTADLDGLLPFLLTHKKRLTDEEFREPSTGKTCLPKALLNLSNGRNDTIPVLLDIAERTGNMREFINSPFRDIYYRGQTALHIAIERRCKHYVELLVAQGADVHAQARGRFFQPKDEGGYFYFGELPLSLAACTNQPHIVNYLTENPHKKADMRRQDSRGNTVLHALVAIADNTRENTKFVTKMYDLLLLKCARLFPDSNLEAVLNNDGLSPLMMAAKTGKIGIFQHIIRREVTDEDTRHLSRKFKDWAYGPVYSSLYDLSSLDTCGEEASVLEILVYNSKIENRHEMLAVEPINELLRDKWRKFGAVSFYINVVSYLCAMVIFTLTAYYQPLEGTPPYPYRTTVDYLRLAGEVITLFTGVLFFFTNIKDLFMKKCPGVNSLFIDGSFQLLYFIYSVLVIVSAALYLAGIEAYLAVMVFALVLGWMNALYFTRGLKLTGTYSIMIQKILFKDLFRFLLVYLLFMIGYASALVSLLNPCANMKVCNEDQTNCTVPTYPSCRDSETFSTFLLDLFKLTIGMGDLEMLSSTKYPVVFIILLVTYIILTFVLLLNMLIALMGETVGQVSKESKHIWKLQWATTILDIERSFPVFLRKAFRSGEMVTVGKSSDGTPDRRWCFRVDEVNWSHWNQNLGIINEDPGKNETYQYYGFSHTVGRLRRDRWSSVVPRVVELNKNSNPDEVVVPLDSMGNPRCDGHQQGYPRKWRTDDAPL

[1] = tested on: bradykinin induced tactile allodynia; assay: Bradykinin induced pain model; assay type: in vivo, rat
Protocol: As outlined above, the bradykinin model involves an intraplantar injection of a 5 ng/uL solution of bradykinin. Injection of the bradykinin solution typically causes a rapid sensitization. Sensitization is measured by assessing the thermal escape latency of the injected paw in response to a mild thermal stimulus delivered by a modified Hargreaves apparatus. FIGS. 1a and 1b summarize data obtained following testing of Compound 200 in the bradykinin model. This study examined the antinociceptive effects of 200 mg/kg, 50 mg/kg, and 12.5 mg/kg intraperitoneal Compound 200 on bradykinin induced tactile allodynia. […] Inhibitor or vehicle were injected intraperitoneally (IP). […] Throughout the study, general behavioral assessments were made during each period of observation. Observations included tactile allodynia (vocalization/agitation induced by light touch applied to the body surface), spontaneous vocalization, biting and chewing of body surface, loss of hind limb placing and stepping reflex, loss of hind limb weight bearing, and loss of righting reflex. Additionally, mechanical allodynia was assessed and measured. The results provided in FIGS. 1a and 1b are based on assessment of mechanical allodynia.

[2] = tested on: carrageenan-induced inflammation; assay: Carrageenan model of acute inflammatory pain (paw volume); assay type: in vivo, rat; details: IP, carrageenan injected paw
Protocol: In this study, the drug administered was either a TRPA1 inhibitor or the non-steroidal anti-inflammatory diclofenac. Following administration of both carrageenan and drug or vehicle control, paw volume was measured and used to assess decreased inflammation.

[3] = tested on: CFA model of inflammatory pain; assay: CFA model of inflammatory pain
Protocol: FIG. 4 summarizes data obtained following testing of Compound 200 in the CFA model. Naive rats were pretested for sensitivity to a heat stimulus in the Hargreaves apparatus. The next day, 100 μL of complete Freund's adjuvant (CFA) was injected into the plantar surface of the right hindpaw. Two days later, in the morning, the rats were again pretested. In the afternoon, rats were injected with either vehicle control or with drug (TRPA1 inhibitor 200 or the non-steroidal anti-inflammatory diclofenac). Drugs or vehicle were injected intraperitoneally, and 45 minutes later rats were tested for hyperalgesia by applying the heat source to the CFA injected and uninjected hindpaw and measuring latency to withdrawal.

[4] = tested on: BOO model of incontinence; details: BOO rats, intravesical infusion
Excerpt: Efficacy of the varying doses of TRPA1 inhibitory compound were compared to controls administered excipients alone (sham control). Efficacy was also compared to rats administered a positive control, such as atropine.
Female Sprague Dawley rats were used in these studies. Rats underwent surgical partial bladder outlet obstruction (BOO) or sham surgery. Five weeks after BOO (or sham) surgery, an intravesical catheter was surgically implanted into the dome of the bladder for conducting urodynamic studies. One week after catheter implantation (6 weeks after BOO or sham), urodynamic studies began. […] An analytic balance beneath the wire-bottom animal cage measured the amount of urine voided during continuous cystometry. […]
For each CMG cycle, the following parameters were assessed: infused volume (the amount of saline or drug infused for each CMG cycle); void volume (the amount of urine voided by the animal for each CMG cycle); minimum pressure (minimum pressure during filling); threshold pressure (pressure prior to micturition when bladder pressure begins to rise steeply); average pressure (average pressure during filling and before threshold); maximum pressure; intermicturition interval (time between two subsequent voiding events); urine flow rate index.

hERG [5] = biological target: T2, hERG (Homo sapiens, UniProt Q12809); assay: in vitro; details: selective for TRPA1 over hERG
T2 sequence (Q12809 whole entry): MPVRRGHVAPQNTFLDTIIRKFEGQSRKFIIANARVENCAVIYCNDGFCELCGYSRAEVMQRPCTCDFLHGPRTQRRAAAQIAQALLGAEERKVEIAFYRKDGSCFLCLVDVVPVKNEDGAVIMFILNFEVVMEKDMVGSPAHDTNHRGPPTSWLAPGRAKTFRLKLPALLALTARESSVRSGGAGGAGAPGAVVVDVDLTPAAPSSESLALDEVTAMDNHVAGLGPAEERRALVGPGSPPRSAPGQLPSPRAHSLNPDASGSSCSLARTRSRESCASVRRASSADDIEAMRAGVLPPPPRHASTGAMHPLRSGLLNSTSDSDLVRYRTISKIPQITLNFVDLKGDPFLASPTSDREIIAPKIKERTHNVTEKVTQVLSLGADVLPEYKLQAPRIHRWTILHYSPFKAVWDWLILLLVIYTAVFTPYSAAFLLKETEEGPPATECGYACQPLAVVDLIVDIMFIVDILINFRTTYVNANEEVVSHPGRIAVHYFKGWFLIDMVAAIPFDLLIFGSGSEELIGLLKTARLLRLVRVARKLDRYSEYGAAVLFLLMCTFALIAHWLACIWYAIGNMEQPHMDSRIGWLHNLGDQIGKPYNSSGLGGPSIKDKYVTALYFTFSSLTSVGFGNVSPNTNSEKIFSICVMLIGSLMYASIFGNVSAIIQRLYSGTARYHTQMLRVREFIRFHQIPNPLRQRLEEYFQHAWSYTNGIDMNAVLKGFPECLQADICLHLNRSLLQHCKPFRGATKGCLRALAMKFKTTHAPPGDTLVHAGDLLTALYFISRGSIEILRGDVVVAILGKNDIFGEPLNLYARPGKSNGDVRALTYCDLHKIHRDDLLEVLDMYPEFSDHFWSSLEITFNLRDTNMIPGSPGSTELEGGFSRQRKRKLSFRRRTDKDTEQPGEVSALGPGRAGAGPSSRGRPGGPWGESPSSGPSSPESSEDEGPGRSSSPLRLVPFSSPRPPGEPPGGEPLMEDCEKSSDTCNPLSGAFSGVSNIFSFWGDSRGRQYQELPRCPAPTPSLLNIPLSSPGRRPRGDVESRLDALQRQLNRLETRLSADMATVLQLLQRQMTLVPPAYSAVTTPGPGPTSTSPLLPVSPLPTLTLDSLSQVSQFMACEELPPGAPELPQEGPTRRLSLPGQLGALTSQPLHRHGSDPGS

hERG [6] = biological target: T2, hERG; assay: hERG patch clamp (Qpatch) selectivity; details: hERG IC50 (nM), Table 2

hNaV1.2, sequence (Q99250 whole entry): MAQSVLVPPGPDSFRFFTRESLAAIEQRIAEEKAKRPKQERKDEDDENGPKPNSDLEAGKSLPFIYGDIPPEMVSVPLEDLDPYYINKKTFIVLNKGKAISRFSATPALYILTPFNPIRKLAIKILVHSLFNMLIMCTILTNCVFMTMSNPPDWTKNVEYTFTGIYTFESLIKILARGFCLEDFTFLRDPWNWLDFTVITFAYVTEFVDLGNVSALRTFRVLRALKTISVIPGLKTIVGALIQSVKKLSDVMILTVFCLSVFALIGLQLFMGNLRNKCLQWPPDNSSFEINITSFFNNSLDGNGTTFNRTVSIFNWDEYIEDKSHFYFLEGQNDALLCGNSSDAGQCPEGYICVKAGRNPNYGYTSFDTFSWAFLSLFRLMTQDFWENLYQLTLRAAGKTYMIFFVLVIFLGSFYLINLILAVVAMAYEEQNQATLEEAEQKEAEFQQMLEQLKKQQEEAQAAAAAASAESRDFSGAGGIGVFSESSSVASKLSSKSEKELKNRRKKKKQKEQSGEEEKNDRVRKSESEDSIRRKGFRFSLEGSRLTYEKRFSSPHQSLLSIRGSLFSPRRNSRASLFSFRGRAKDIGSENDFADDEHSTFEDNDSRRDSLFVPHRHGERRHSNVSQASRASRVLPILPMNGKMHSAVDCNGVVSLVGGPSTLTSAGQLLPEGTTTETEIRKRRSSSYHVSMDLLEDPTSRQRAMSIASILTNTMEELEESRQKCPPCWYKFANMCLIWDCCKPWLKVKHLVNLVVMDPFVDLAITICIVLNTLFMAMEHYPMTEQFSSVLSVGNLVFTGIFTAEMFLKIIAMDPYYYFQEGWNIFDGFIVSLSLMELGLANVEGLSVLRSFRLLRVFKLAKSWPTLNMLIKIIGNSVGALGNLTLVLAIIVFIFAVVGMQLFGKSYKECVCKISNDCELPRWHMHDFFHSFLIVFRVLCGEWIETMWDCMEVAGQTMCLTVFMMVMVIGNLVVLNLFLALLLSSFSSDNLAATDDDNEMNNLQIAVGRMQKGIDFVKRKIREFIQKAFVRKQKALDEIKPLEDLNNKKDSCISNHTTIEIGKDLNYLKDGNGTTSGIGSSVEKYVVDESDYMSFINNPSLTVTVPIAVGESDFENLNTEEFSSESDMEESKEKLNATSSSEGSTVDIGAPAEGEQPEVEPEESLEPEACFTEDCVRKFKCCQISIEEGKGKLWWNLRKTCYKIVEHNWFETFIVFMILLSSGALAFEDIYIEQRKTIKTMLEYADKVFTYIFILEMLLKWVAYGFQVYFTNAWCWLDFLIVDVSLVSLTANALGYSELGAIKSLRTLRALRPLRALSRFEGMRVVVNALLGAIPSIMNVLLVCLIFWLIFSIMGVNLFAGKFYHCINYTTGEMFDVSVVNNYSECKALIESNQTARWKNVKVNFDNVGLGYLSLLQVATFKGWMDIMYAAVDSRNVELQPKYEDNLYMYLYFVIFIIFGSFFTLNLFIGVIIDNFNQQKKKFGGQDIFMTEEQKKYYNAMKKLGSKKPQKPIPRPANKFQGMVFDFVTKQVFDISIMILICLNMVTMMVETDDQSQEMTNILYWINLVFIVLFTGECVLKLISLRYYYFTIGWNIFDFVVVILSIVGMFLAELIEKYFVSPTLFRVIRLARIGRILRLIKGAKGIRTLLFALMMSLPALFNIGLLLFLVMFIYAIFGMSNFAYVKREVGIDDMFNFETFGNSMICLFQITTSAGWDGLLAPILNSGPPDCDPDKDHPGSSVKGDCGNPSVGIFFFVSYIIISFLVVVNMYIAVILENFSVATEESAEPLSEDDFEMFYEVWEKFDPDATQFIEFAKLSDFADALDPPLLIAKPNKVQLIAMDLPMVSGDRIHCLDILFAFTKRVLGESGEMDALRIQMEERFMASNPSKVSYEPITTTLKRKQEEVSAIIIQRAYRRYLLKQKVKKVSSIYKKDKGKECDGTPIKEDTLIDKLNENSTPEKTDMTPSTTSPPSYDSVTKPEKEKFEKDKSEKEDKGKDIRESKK

## CC(C)c1ccc(NC(=O)Cn2cnc3c2c(=O)n(C)c(=O)n3C)cc1 [Compound 200, 2-(1,3-dimethyl-2,6-dioxo-1,2,3,6-tetrahydropurin-7-yl)-N-(4-isopropylphenyl)acetamide]
hNaV1.2
  selective for TRPA1 over NaV1.2: ≥ 25 fold
hNaV1.2; read-out: hNaV1.2 IC50
  IC50: ≥ 30 µM
hTRPV3
  selective for TRPA1 over TRPV3: ≥ 5 fold
hTRPV3; read-out: hTRPV3 P1 inward IC50
  IC50: > 10 µM
hTRPV4
  IC50: > 10 µM
  selective for TRPA1 over TRPV4: ≥ 5 fold
[1]; IP 12.5, 50, 200 mg/kg, 30 min before bradykinin
  effect on mechanical threshold / allodynia after bradykinin injection: dose dependent effect; also recorded: dose dependent decrease of allodynia
[1]; IP doses up to 200 mg/kg
  changes in behavioral parameters: no changes in behavioral parameters were noted
  duration of effect on mechanical threshold: approximately 60 minutes
[1]; highest dose (200 mg/kg IP)
  rats with mild sedation: 3 of 8
[2]
  paw volume (inflammation): decreased
[3]; IP
  efficacy compared with diclofenac: superior to diclofenac
[3]; IP, 45 minutes before test, CFA injected paw
  thermal hyperalgesia: reduced
[3]; rat, in vivo, ip
  toxicity: without toxicity
[3]; uninjected hindpaw
  control paw (uninflamed) sensation: not affected
[4]
  maximum bladder pressure: decreased
  threshold bladder pressure: decreased
hERG [5]
  selectivity ratio: ≥ 20
hERG [6]
  IC50: ≥ 20000 nM
